Experimental data as given in ChEMBL document CHEMBL1201862, “PubChem BioAssay data set” (2004).
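These data come from cells grown in 96-well plates and exposed to compound for 48 hours at five concentrations. GI50 marks 50% less growth.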 The source made the active and inactive calls. No stated cut-off is given here; in the data, active = GI50 up to about 1.1 µM and inactive = higher.

Key:
Experiment in all cases: NCI tumour cell line growth inhibition, 48 h
786-0 = tested on: 786-0
A549 = tested on: A549
BT-549 = tested on: BT-549
CAKI-1 = tested on: CAKI-1
HL-60 = tested on: HL-60
K562 = tested on: K562
KM12 = tested on: KM12
LOX IMVI = tested on: LOX IMVI
M14 = tested on: M14
MDA-N = tested on: MDA-N
MOLT-4 = tested on: MOLT-4
Malme-3M = tested on: Malme-3M
NCI-H23 = tested on: NCI-H23
NCI-H522 = tested on: NCI-H522
NCI/ADR-RES = tested on: NCI/ADR-RES
OVCAR-3 = tested on: OVCAR-3
T47D = tested on: T47D
TK-10 = tested on: TK-10
SF-539 = tested on: SF-539

Structure (SMILES) | GI50 (786-0) | GI50 (A549) | GI50 (BT-549) | GI50 (CAKI-1) | GI50 (HL-60) | GI50 (K562) | GI50 (KM12) | GI50 (LOX IMVI) | GI50 (M14) | GI50 (MDA-N) | GI50 (MOLT-4) | GI50 (Malme-3M) | GI50 (NCI-H23) | GI50 (NCI-H522) | GI50 (NCI/ADR-RES) | GI50 (OVCAR-3) | GI50 (T47D) | GI50 (TK-10) | GI50 (SF-539)
NS(=O)(=O)c1ccc(N=C2C(=O)Nc3ccccc32)cc1 | > 100 µM (inactive) | > 100 µM (inactive) | > 100 µM (inactive) | > 100 µM (inactive) | > 100 µM (inactive) | 65.8 µM (inactive) | > 100 µM (inactive) | 57.7 µM (inactive) | > 100 µM (inactive) | > 100 µM (inactive) | > 100 µM (inactive) | > 100 µM (inactive) | > 100 µM (inactive) | 70.8 µM (inactive) | > 100 µM (inactive) | > 100 µM (inactive) | > 100 µM (inactive) | > 100 µM (inactive) | 
Cc1sc(NC=C2C(=O)CC(C)(C)CC2=O)nc1-c1ccccc1 | > 100 µM (inactive) | > 100 µM (inactive) | > 100 µM (inactive) | > 100 µM (inactive) | 2.17 µM (inactive) | > 100 µM (inactive) | > 100 µM (inactive) | > 100 µM (inactive) | > 100 µM (inactive) | > 100 µM (inactive) | > 100 µM (inactive) |  | > 100 µM (inactive) | 80.5 µM (inactive) | > 100 µM (inactive) | > 100 µM (inactive) | > 100 µM (inactive) | > 100 µM (inactive) | > 100 µM (inactive)
CNC(=S)/C(=N\Nc1[nH]cnc1C(N)=O)C(N)=S | 7.71 µM (inactive) | > 84.1 µM (inactive) | 29.9 µM (inactive) | 1.71 µM (inactive) |  | 0.444 µM (active) | 4.09 µM (inactive) | 0.598 µM (active) | 1.1 µM (active) | 4.34 µM (inactive) | 0.711 µM (active) | 1.1 µM (active) | 17.3 µM (inactive) | 10.9 µM (inactive) | 1.36 µM (inactive) | 6.43 µM (inactive) | 11.6 µM (inactive) | 1.24 µM (inactive) | 5.21 µM (inactive)
CCOc1ccc2c(c1)NC(=O)C(C1OC(c3ccccc3)=CC1=O)S2 (stereo unspecified) | 33.3 µM (inactive) | 17.3 µM (inactive) | 32.1 µM (inactive) | 34.5 µM (inactive) | 44.8 µM (inactive) | 24.2 µM (inactive) | 23.9 µM (inactive) | 23.2 µM (inactive) | 48.2 µM (inactive) | 25.1 µM (inactive) |  | 21.1 µM (inactive) | 28.2 µM (inactive) | 10.4 µM (inactive) | 24.9 µM (inactive) | 20.1 µM (inactive) | 15.8 µM (inactive) | 43.7 µM (inactive) | 25.1 µM (inactive)
CC1(C)N=[N+]([O-])C1(C)C | > 100 µM (inactive) | > 100 µM (inactive) | > 100 µM (inactive) | > 100 µM (inactive) | > 100 µM (inactive) | > 100 µM (inactive) | > 100 µM (inactive) | > 100 µM (inactive) | > 100 µM (inactive) | > 100 µM (inactive) | > 100 µM (inactive) | > 100 µM (inactive) | > 100 µM (inactive) | > 100 µM (inactive) | > 100 µM (inactive) | > 100 µM (inactive) | > 100 µM (inactive) | > 100 µM (inactive) | > 100 µM (inactive)
CC(C)(C)OC(=O)n1c(-c2ccccc2F)cc(=O)c2cc3c(cc21)OCO3 | 0.0541 µM (active) | 0.103 µM (active) | 19.8 µM (inactive) |  | 0.0451 µM (active) |  | 0.028 µM (active) | 0.111 µM (active) | 1.4 µM (inactive) | < 0.01 µM (active) | 0.106 µM (active) | 0.0526 µM (active) | 0.398 µM (active) | 0.0267 µM (active) | 0.0231 µM (active) | 0.03 µM (active) | 16.8 µM (inactive) | 4.66 µM (inactive) | 0.0736 µM (active)
CN(C)/C=C/c1ccncc1 | > 100 µM (inactive) | > 100 µM (inactive) | > 100 µM (inactive) | > 100 µM (inactive) |  | > 100 µM (inactive) | > 100 µM (inactive) | > 100 µM (inactive) | > 100 µM (inactive) | > 100 µM (inactive) | 28.7 µM (inactive) | > 100 µM (inactive) | > 100 µM (inactive) | > 100 µM (inactive) | > 100 µM (inactive) | > 100 µM (inactive) | > 100 µM (inactive) | > 100 µM (inactive) | > 100 µM (inactive)
